Test results as given in patent US20230184770A1, “Exosome Analysis And Brain Tumors” (Institute For Cancer Research d/b/a The Research Institute …, priority 2020, published 2023).

Key:
[1] = system: medulloblastoma cells from Ptch1−/− mice; test: Medulloblastoma cell proliferation, 48 h treatment (Ki67 immunocytochemistry); type: cell-based, mouse
Experimental: (§1) To examine the functions of exosomes in medulloblastoma cell proliferation, tumor cells from Ptch1^−/− mice were isolated and treated with GW4869 or DMSO for 48 hours. […] To determine whether tumor cell-derived exosomes mediate vismodegib resistance, exosomes from medulloblastoma cells were collected and treated with 200 nM of vismodegib for 48 hours. Medulloblastoma cells from Ptch1^−/− mice were treated with DMSO, vismodegib, or vismodegib together with tumor cell-derived exosomes for 48 hours. Following treatment, medulloblastoma cells were harvested to examine their proliferation by immunocytochemistry (see, FIG. 4). […] Finally, exosomes from medulloblastoma cells were harvested and treated with DMSO or vismodegib for 48 hours.

[2] = system: MB-luciferase cells injected into the cerebellum; test: In vivo bioluminescence imaging of MB-luciferase tumor growth in NSG mice; design: species or system mouse
Experimental: MB-luciferase cells were generated and stereotaxically injected into the cerebellum of 6- to 8-week-old NSG mice. Animals were monitored weekly using in vivo bioluminescence imaging and bioluminescence was detected as Day 0. The tumor-bearing mice were treated with vismodegib (50 mg/kg) for 7 days. These mice were separated into two groups randomly, one group was treated with a vehicle and another group was treated with GW4869 (1.25 mg/kg per day) for 3 weeks (FIG. 9A). They were monitored weekly using in vivo bioluminescence imaging (FIG. 9B).

[3] = system: Ras protein in exosomes derived from medulloblastoma cells; test: Western blotting of Ras in exosomes from treated MB cells; type: cell-based, mouse; conditions: exosomes from MB cells treated with DMSO or vismodegib for 48 hours
Experimental: as §1

[4] = system: Gli1 mRNA (shh signaling) in medulloblastoma cells; test: Gli1 mRNA levels in MB cells by q-PCR; type: cell-based, mouse; conditions: MB cells after 48 hours treatment
Experimental: as §1

Compound	medulloblastoma cell proliferation ([1]; tumor cells from Ptch1−/− mice, GW4869 vs DMSO, data not shown)	tumor growth (bioluminescence) after 28 days, with vs without GW4869 ([2]; after vismodegib 50 mg/kg 7 days, GW4869 1.25 mg/kg per day 3 weeks vs vehicle, p<0.05)	medulloblastoma cell proliferation (Ki67+ cells) ([1]; MB cells from Ptch1−/− mice, DMSO vs vismodegib vs vismodegib + exosomes, exosome-donor cells vismodegib 200 nM)	tumor growth (bioluminescence) ([2]; vismodegib 50 mg/kg for 7 days)	Ras protein in exosomes [3]	Gli1 mRNA levels [4]
Cl.Cl.O=C(C=Cc1ccc(C=CC(=O)Nc2ccc(C3=NCCN3)cc2)cc1)Nc1ccc(C2=NCCN2)cc1 [GW4869, N,N′-Bis[4-(4,5-dihydro-1H-imidazol-2-yl)phenyl]-3,3′-p-phenylene-bis-acrylamide dihydrochloride]	significantly repressed medulloblastoma cell proliferation	significant difference				
CS(=O)(=O)c1ccc(C(=O)Nc2ccc(Cl)c(-c3ccccn3)c2)c(Cl)c1 [vismodegib]			significantly repressed tumor cell proliferation	significantly reduce tumor growth	readily detected	decreased
